Measured values reported in ChEMBL document CHEMBL3616419, “Synthesis, structure-activity relationship and biological evaluation of novel nitrogen mustard sophoridinic acid derivatives as potential anticancer agents” (Bioorg Med Chem Lett, 2015).
In brackets after ≈: the same amount, converted by molar mass.

What was measured:
[1] = test system: HepG2; test: Antiproliferative activity against human HepG2 cells incubated for 48 hrs by MTT assay; type: functional, cell-based; settings: HepG2, 48 h
[2] = Stability of the compound; type: physicochemical
[3] = test system: Mus musculus; test: Toxicity in […] HepA cells xenografted KM mouse assessed as reduction in body weight at 18 to 72 mg/kg, iv dosed for 10 days relative to untreated control; type: organism-based; design: scale not given: the % may be the effect or the level left; settings: in vivo, 240 h
[4] = Antitumor activity against […] HepA cells xenografted in KM mouse assessed as inhibition of tumor weight at 72 mg/kg, iv dosed for 10 days relative to untreated control; type: functional; settings: 240 h, read-out: TGI
[5] = Antitumor activity against […] HepA cells xenografted in KM mouse assessed as inhibition of tumor weight at 18 mg/kg, iv dosed for 10 days relative to untreated control; type: functional; settings: 240 h, read-out: TGI
[6] = Antitumor activity against […] HepA cells xenografted in KM mouse assessed as inhibition of tumor weight at 36 mg/kg, iv dosed for 10 days relative to untreated control; type: functional; settings: 240 h, read-out: TGI

Row | SMILES | IC50 [1] | Stability [2] | further results
1 | N[C@@H](Cc1ccc(N(CCCl)CCCl)cc1)C(=O)O [MELPHALAN] | 0.41 µg/mL (≈ 1.34 µM) |  | 
2 | CCCOC(=O)CCC[C@H]1[C@H]2CCCN3CCC[C@H](CN1C(=O)c1ccc(N(CCCl)CCCl)cc1)[C@@H]23 | 44.6 µg/mL (≈ 80.7 µM) | Unstable | 
3 | CCOC(=O)CCC[C@H]1[C@H]2CCCN3CCC[C@H](CN1C(=O)c1ccc(N(CCCl)CCCl)cc1)[C@@H]23 | 91.2 µg/mL (≈ 169 µM) | Unstable | 
4 | CCCCOC(=O)CCC[C@H]1[C@H]2CCCN3CCC[C@H](CN1C(=O)c1ccc(N(CCCl)CCCl)cc1)[C@@H]23 | 25 µg/mL (≈ 44.1 µM) | Unstable | 
5 | CC(C)OC(=O)CCC[C@@H]1NC[C@H]2CCCN3CCC[C@H]1[C@H]23 | 93.1 µg/mL (≈ 302 µM) |  | 
6 | CC(C)OC(=O)CCC[C@H]1[C@H]2CCCN3CCC[C@H](CN1C(=O)c1ccc(N(CCCl)CCCl)cc1)[C@@H]23 | 2.39 µg/mL (≈ 4.33 µM) | Unstable | 
7 | CCCCOC(=O)CCC[C@@H]1NC[C@H]2CCCN3CCC[C@H]1[C@H]23 | 136 µg/mL (≈ 421 µM) |  | 
8 | O=C(CCC[C@H]1[C@H]2CCCN3CCC[C@H](CN1Cc1ccccc1)[C@@H]23)N(CCCl)CCCl | 2.74 µg/mL (≈ 5.7 µM) |  | 
9 | CCOC(=O)CCC[C@@H]1NC[C@H]2CCCN3CCC[C@H]1[C@H]23 | 223 µg/mL (≈ 757 µM) |  | 
10 | O=C1CCC[C@@H]2[C@H]3CCCN4CCC[C@H](CN12)[C@@H]34 [SOPHORIDINE] | 1160 µg/mL (≈ 4670 µM) |  | 
11 | COC(=O)CCC[C@H]1[C@H]2CCCN3CCC[C@H](CN1C(=O)c1ccc(N(CCCl)CCCl)cc1)[C@@H]23 | 167 µg/mL (≈ 319 µM) | Unstable | 
12 | CCCOC(=O)CCC[C@@H]1NC[C@H]2CCCN3CCC[C@H]1[C@H]23 | 196 µg/mL (≈ 635 µM) |  | 
13 | COC(=O)CCC[C@@H]1NC[C@H]2CCCN3CCC[C@H]1[C@H]23 | 1650 µg/mL (≈ 5890 µM) |  | 
14 | O=C(CCC[C@H]1[C@H]2CCCN3CCC[C@H](CN1Cc1ccccc1)[C@@H]23)Nc1ccc(N(CCCl)CCCl)cc1 | 0.47 µg/mL (≈ 0.822 µM) |  | Activity [3]: <= 20%; inhibition in vivo at 72 mg/kg [4]: 58.2%; inhibition in vivo at 18 mg/kg [5]: 42.5%; inhibition in vivo at 36 mg/kg [6]: 47.3%
15 | O=C(CCC[C@H]1[C@H]2CCCN3CCC[C@H](CN1Cc1ccccc1)[C@@H]23)OCc1ccc(N(CCCl)CCCl)cc1 | 1.63 µg/mL (≈ 2.78 µM) |  | 
